Assay results taken from PMC7730458, “Rational Computational Design of Fourth-Generation EGFR Inhibitors to Combat Drug-Resistant Non-Small Cell Lung Cancer” (International Journal of Molecular Sciences, 2020).
Like-named read-outs stand apart in the source and are kept apart here.

Legend:
[1] = tested on: Ba/F3 cell lines with the wild type EGFR; assay: cell proliferation inhibition assay, Ba/F3 wild-type EGFR; conditions: Mus musculus, BaF3, 72 h, read-out: IC50 Ba/F3
Description: (§3) The cells were treated with various concentrations of the compounds in duplicate. After 72 h, the fluorescence signals were measured at an excitation wavelength of 540 nm and an emission wavelength of 590 nm using a microplate reader. More specifically, the number of living cells was determined with CellTiter-Glo® Luminescent Cell Viability Assay (Promega).

[2] = tested on: Ba/F3 cell lines with the d746-750/T790M/C797S mutant EGFR; assay: cell proliferation inhibition assay, Ba/F3 triple mutant EGFR; conditions: for IC50: Mus musculus, BaF3, 72 h, read-out: IC50 Ba/F3^d746-750/T790M/C797S; for Selectivity: Table 4, Ba/F3 wild type IC50 over mutant IC50
Description: as §3

[3] = target: T1, wild type EGFR (Homo sapiens, UniProt P00533); assay: radiometric ([γ-33P]-ATP) kinase assay, wild-type EGFR; assay type: biochemical
T1 construct: purchased Reaction Biology Corp. (Malvern, PA, USA)
T1 sequence (P00533 25-1210): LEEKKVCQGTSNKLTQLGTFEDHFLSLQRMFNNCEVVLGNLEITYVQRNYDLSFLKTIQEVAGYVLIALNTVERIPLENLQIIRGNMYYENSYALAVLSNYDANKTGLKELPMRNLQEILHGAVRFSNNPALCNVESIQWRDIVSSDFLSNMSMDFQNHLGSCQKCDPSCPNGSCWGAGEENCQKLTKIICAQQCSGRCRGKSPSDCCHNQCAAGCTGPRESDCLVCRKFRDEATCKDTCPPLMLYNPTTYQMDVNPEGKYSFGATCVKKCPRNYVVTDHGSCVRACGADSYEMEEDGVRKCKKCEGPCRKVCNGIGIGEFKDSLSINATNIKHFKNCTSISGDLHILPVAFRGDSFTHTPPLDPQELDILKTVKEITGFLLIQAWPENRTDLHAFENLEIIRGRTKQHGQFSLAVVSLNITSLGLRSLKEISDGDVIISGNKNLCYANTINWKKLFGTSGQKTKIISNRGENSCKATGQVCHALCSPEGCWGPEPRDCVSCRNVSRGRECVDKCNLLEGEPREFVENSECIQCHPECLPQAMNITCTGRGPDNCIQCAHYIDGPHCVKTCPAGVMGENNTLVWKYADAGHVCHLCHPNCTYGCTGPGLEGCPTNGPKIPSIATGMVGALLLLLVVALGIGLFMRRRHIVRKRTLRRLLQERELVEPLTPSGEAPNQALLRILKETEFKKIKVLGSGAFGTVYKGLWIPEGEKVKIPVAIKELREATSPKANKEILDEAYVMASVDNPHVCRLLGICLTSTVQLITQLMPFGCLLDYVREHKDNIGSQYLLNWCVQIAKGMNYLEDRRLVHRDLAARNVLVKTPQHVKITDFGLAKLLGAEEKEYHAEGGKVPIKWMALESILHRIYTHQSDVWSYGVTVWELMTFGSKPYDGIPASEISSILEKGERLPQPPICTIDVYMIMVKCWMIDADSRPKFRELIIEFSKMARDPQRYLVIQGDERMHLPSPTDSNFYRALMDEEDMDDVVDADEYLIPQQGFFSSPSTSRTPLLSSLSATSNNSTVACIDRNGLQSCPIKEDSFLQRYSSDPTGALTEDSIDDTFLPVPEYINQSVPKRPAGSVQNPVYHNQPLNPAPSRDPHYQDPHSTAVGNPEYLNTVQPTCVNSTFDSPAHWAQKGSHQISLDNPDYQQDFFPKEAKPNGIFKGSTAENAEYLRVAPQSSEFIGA
Description: (§1) This small number of virtual hits exemplifies the difficulty in discovering the fourth-generation inhibitors that are specific for the triple mutant. This can be understood in the context of the high structural similarity between the mutant and the wild type. All virtual hits were assessed for the presence of inhibitory activity against the d746-750/T790M/C797S mutant and the wild type via in vitro radiometric ([γ-^33P]-ATP) kinase assays (Reaction Biology Corp., Malvern, PA, USA). As a consequence of virtual and experimental screening, four molecules were identified as low-micromolar inhibitors of d746-750/T790M/C797S mutant. Actually, none of the four molecules have previously been reported as EGFR kinase inhibitors. With respect to disproving the possibility of acting as a false positive in enzyme inhibition assays, all four inhibitors were examined in the public ZINC database to confirm the lack of any substructure in pan assay interference compounds (PAINS).
(§2) The inhibitory activities of all compounds with respect to the wild type and the d746-750/T790M/C797S mutant of EGFR were measured by Reaction Biology Corp. (Malvern, PA, USA) using the radiometric kinase assays ([γ-^33P]-ATP). Briefly, the enzymatic reaction mixtures contained an artificial substrate peptide, poly-Glu-Tyr (4:1) in freshly prepared base reaction buffer (20 mM HEPES of pH 7.5, 10 mM MgCl2, 1 mM EGTA, 0.02% Brij-35, 0.02 mg/mL BSA, 0.1 mM Na3VO4, 2 mM DTT, 1% DMSO). Wild-type and mutant EGFR were delivered into the substrate solution and gently mixed. Each inhibitor in 100% DMSO in a serial dilution was then delivered to the reaction mixture using the acoustic dispensing system (Echo550; nanoliter range). To initiate the enzymatic reaction, ^33P-ATP with a specific activity of 10 μCi/μL was added into the reaction mixture, and the mixture was further incubated for 2 h at room temperature. Radioactivity was then monitored by the filter-binding method after reactions were spotted onto P81 ion exchange paper and the filters were washed extensively in 0.75% phosphoric acid. Kinase activity data were expressed as the percent remaining kinase activity in test samples compared to vehicle (dimethyl sulfoxide) reactions. IC50 values and curve fits were calculated with Prism Software (GraphPad Software) at 10 different concentrations. Staurosporine was employed as the positive control in this study.

[4] = target: T2, d746-750/T790M/C797S mutant EGFR (Homo sapiens, UniProt P00533, C797S/DEL746-750/T790M); assay: radiometric ([γ-33P]-ATP) kinase assay, triple mutant EGFR; assay type: biochemical; conditions: for Selectivity Index (IC50^WT/IC50^mutant): ratio of IC50 for the wild type to that for the triple mutant; for Selectivity: wild type IC50 over triple mutant IC50
T2 construct: purchased Reaction Biology Corp. (Malvern, PA, USA)
T2 sequence (P00533 with tags, fused parts or gaps DEL746-750/T790M/C797S): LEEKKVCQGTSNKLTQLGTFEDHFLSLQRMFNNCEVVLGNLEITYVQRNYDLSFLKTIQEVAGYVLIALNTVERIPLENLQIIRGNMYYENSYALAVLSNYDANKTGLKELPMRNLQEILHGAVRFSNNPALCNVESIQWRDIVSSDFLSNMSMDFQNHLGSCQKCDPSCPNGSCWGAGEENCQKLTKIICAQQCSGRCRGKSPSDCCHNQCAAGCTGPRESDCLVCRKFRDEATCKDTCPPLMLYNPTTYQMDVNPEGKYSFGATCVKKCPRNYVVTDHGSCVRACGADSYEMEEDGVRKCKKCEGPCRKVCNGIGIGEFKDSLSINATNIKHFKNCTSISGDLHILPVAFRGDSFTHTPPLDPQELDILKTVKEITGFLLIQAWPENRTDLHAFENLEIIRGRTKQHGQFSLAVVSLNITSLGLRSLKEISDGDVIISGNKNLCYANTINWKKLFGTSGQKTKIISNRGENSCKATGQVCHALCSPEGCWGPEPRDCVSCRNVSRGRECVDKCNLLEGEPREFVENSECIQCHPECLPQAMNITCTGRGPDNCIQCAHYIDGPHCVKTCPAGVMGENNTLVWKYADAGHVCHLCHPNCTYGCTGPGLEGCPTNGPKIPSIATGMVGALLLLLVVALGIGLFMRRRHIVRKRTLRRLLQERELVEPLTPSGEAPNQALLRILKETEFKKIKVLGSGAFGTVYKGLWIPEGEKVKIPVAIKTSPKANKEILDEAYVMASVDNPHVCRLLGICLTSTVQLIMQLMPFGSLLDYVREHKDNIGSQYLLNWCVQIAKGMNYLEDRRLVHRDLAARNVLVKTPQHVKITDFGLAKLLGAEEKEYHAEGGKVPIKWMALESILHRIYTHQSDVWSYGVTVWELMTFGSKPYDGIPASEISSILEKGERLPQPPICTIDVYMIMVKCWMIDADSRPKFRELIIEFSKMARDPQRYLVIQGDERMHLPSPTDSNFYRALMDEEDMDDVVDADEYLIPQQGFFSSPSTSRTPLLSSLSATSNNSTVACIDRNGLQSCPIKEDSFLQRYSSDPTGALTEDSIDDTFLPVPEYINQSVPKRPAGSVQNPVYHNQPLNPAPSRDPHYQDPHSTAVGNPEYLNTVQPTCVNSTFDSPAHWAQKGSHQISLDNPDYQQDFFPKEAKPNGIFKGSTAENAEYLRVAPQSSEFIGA
Description: as §1, §2

[5] = Table 1, mean ± standard deviations of two experiments, read-out: IC50 Wild Type
[6] = Table 1, mean ± standard deviations of two experiments, read-out: IC50 d746-750/T790M/C797S
[7] = Table 2, derivatives of 1, wild type, mean ± SD of two experiments, read-out: IC50 EGFR
[8] = Table 2, derivatives of 1, mean ± SD of two experiments, read-out: IC50 EGFR^d746-750/T790M/C797S
[9] = Table 3, derivatives of 2, wild type, mean ± SD of two experiments, read-out: IC50 EGFR
[10] = Table 3, derivatives of 2, mean ± SD of two experiments, read-out: IC50 EGFR^d746-750/T790M/C797S

Row | Selectivity ([4]; Table 2) | Selectivity ([4]; Table 3) | IC50 [3, 7] | IC50 [4, 8] | IC50 [3, 9] | IC50 [4, 10] | SMILES | also measured
1 |  | 21.4 |  |  |  |  | Oc1ccccc1-c1nc(NCCN2CCOCC2)c2ccccc2n1 [Compound 2] | IC50 [3, 5]: 37.1 ± 2.3 µM; IC50 [4, 6]: 1.73 ± 0.38 µM; Selectivity Index (IC50^WT/IC50^mutant) ([4]; Table 1): 21.4
2 |  | >96.9 |  |  | > 50 µM | 0.516 ± 0.206 µM | CCN(CC)CCCNc1nc(-c2ccccc2O)nc2ccccc12 [Compound 12, 2-(4-((3-(diethylamino)propyl)amino)quinazolin-2-yl)phenol] | 
3 |  | 319 |  |  | 8.45 ± 1.89 µM | 0.0265 ± 0.0084 µM | CCN(CC)CCCNc1nc(-c2cc(C#N)ccc2O)nc2ccccc12 [Compound 13, 3-(4-((3-(diethylamino)propyl)amino)quinazolin-2-yl)-4-hydroxybenzonitrile] | 
4 |  | >44.6 |  |  | > 50 µM | 1.12 ± 0.21 µM | Oc1ccccc1-c1nc(NCc2cscn2)c2ccccc2n1 [Compound 14, 2-(4-((thiazol-4-ylmethyl)amino)quinazolin-2-yl)phenol] | 
5 |  | >693 |  |  | > 50 µM |  | N#Cc1ccc(O)c(-c2nc(NCc3cc[nH]c3)c3ccccc3n2)c1 [Compound 16, 3-(4-(((1H-pyrrol-3-yl)methyl)amino)quinazolin-2-yl)-4-hydroxybenzonitrile] | 
6 |  | >84.3 |  |  | > 50 µM | 0.593 ± 0.076 µM | N#Cc1ccc(O)c(-c2nc(NCc3cocn3)c3ccccc3n2)c1 [Compound 17, 4-hydroxy-3-(4-((oxazol-4-ylmethyl)amino)quinazolin-2-yl)benzonitrile] | 
7 |  | >6693 |  |  | > 50 µM | 0.00747 ± 0.00039 µM | N#Cc1ccc(O)c(-c2nc(NCc3c[nH]cn3)c3ccccc3n2)c1 [Compound 18, 3-(4-(((1H-imidazol-4-yl)methyl)amino)quinazolin-2-yl)-4-hydroxybenzonitrile] | biochemical potency against the d746-750/T790M/C797S mutant (in words) [4]: low-nanomolar level; selectivity in the inhibition of EGFR^d746-750/T790M/C797S over the wild type ([4]; enzyme assays): more than 6690 fold; IC50 [1]: > 5 µM; antiproliferative activity against the d746-750/T790M/C797S mutant cell (in words) [2]: submicromolar level; IC50 [2]: 0.78 ± 0.31 µM; Selectivity [2]: >6.41
8 |  | >14793 |  |  | > 50 µM | 0.00338 ± 0.00102 µM | Cn1cnc(CNc2nc(-c3cc(C#N)ccc3O)nc3ccccc23)c1 [Compound 19, 4-hydroxy-3-(4-(((1-methyl-1H-imidazol-4-yl)methyl)amino)quinazolin-2-yl)benzonitrile] | biochemical potency against the d746-750/T790M/C797S mutant (in words) [4]: low-nanomolar; selectivity index / factor, triple mutant over the wild type ([4]; enzyme assays): higher than 10^4; IC50 [1]: 2.47 ± 0.89 µM; antiproliferative activity against the d746-750/T790M/C797S mutant cell (in words) [2]: submicromolar level; IC50 [2]: 0.74 ± 0.22 µM; Selectivity [2]: 3.34
9 |  | >10331 |  |  | > 50 µM | 0.00484 ± 0.00063 µM | N#Cc1ccc(O)c(-c2nc(NCCc3c[nH]cn3)c3ccccc3n2)c1 [Compound 20, 3-(4-((2-(1H-imidazol-4-yl)ethyl)amino)quinazolin-2-yl)-4-hydroxybenzonitrile] | biochemical potency against the d746-750/T790M/C797S mutant (in words) [4]: low-nanomolar; selectivity index / factor, triple mutant over the wild type ([4]; enzyme assays): higher than 10^4
10 |  | 118 |  |  | 0.935 ± 0.173 µM | 0.00793 ± 0.00168 µM | Cn1cnc(CNc2nc(-c3cc(C=O)ccc3O)nc3ccccc23)c1 [Compound 21, 4-hydroxy-3-(4-(((1-methyl-1H-imidazol-4-yl)methyl)amino)quinazolin-2-yl)benzaldehyde] | 

The remaining lines, values behind:

Row | SMILES | Selectivity ([4]; Table 2) | Selectivity ([4]; Table 3) | IC50 [3, 7] | IC50 [4, 8] | IC50 [3, 9] | IC50 [4, 10] | also measured
11 | COc1cc(N2CCC(N3CCN(C)CC3)CC2)ccc1Nc1ncc(Cl)c(Nc2ccccc2P(C)(C)=O)n1 [Brigatinib, reference compound] |  |  |  |  |  |  | IC50 [1]: 1.56 ± 0.45 µM; IC50 [2]: 0.067 ± 0.014 µM; Selectivity [2]: 23.3
12 | CC1CCCCN1Cc1c(O)ccc2c1O/C(=C\c1cc3ccccc3o1)C2=O (stereo not shown) [Compound 1] | 34.5 |  |  |  |  |  | IC50 [3, 5]: 72.7 ± 4.8 µM; IC50 [4, 6]: 2.11 ± 0.56 µM; Selectivity Index (IC50^WT/IC50^mutant) ([4]; Table 1): 34.5
13 | COc1ccccc1Nc1nc(N)nc(-c2oc3ccccc3c2C)n1 [Compound 3] |  |  |  |  |  |  | IC50 [3, 5]: 35.5 ± 3.5 µM; IC50 [4, 6]: 2.89 ± 0.91 µM; Selectivity Index (IC50^WT/IC50^mutant) ([4]; Table 1): 12.3
14 | c1ccc(CNc2ncnc3oc(-c4ccccc4)c(-c4ccccc4)c23)cc1 [Compound 4] |  |  |  |  |  |  | biochemical potency against the wild-type EGFR (in words) [3]: nanomolar level; IC50 [3, 5]: 0.00588 ± 0.00098 µM; higher inhibitory activity against the wild type than against the d746-750/T790M/C797S mutant ([3]; enzyme assays): 136 fold; IC50 [4, 6]: 0.802 ± 0.055 µM; Selectivity Index (IC50^WT/IC50^mutant) ([4]; Table 1): 0.00733
15 | O=C1/C(=C/c2cc3ccccc3o2)Oc2c1ccc(O)c2CN1CCCCC1 [Compound 5, (Z)-2-(benzofuran-2-ylmethylene)-6-hydroxy-7-(piperidin-1-ylmethyl)benzofuran-3(2H)-one] | 22.8 |  | 68.7 ± 3.4 µM | 3.01 ± 0.73 µM |  |  | 
16 | CC1CCCN(Cc2c(O)ccc3c2O/C(=C\c2cc4ccccc4o2)C3=O)C1 (stereo not shown) [Compound 6, (Z)-2-(benzofuran-2-ylmethylene)-6-hydroxy-7-((3-methylpiperidin-1-yl)methyl)benzofuran-3(2H)-one] | 33.9 |  | 65.7 ± 6 µM | 1.94 ± 0.35 µM |  |  | 
17 | CC1CCN(Cc2c(O)ccc3c2O/C(=C\c2cc4ccccc4o2)C3=O)CC1 [Compound 7, (Z)-2-(benzofuran-2-ylmethylene)-6-hydroxy-7-((4-methylpiperidin-1-yl)methyl)benzofuran-3(2H)-one] | 14.8 |  | 78.7 ± 4.6 µM | 5.29 ± 1.8 µM |  |  | 
18 | COc1ccc2oc(/C=C3\Oc4c(ccc(O)c4CN4CCCC(C)C4)C3=O)cc2c1 (stereo not shown) [Compound 8, (Z)-6-hydroxy-2-((5-methoxybenzofuran-2-yl)methylene)-7-((3-methylpiperidin-1-yl)methyl)benzofuran-3(2H)-one] | >4.98 |  | > 100 µM | 20.1 ± 7.2 µM |  |  | 
19 | O=C1/C(=C/c2cc3ccccc3o2)Oc2c1ccc(O)c2CN1CCNCC1 [Compound 9, (Z)-2-(benzofuran-2-ylmethylene)-6-hydroxy-7-(piperazin-1-ylmethyl)benzofuran-3(2H)-one] |  |  | 21.3 ± 6.3 µM | 1.1 ± 0.36 µM |  |  | 
20 | COc1ccc2oc(/C=C3\Oc4c(ccc(O)c4CN4CCNCC4)C3=O)cc2c1 [Compound 10, (Z)-6-hydroxy-2-((5-methoxybenzofuran-2-yl)methylene)-7-(piperazin-1-ylmethyl)benzofuran-3(2H)-one] | 22.6 |  | 36.8 ± 3.9 µM | 1.63 ± 0.43 µM |  |  | 
21 | O=C1/C(=C/c2cc3cc(O)ccc3o2)Oc2c1ccc(O)c2CN1CCNCC1 [Compound 11, (Z)-6-hydroxy-2-((5-hydroxybenzofuran-2-yl)methylene)-7-(piperazin-1-ylmethyl)benzofuran-3(2H)-one] | 1.45 |  | 1.04 ± 0.16 µM | 0.715 ± 0.242 µM |  |  | 
